A short description of series [1]: Hypotensive effect in anesthetized rats (carotid artery blood pressure). The note with it: rat; for Hypotensive effect, Maximum hypotension on dose (A): at dose (A) giving AUC = 771, i.v.; for Hypotensive effect, Maximum hypotension: i.v. Format: in vivo. On the procedure:
(§1) The blood flow increasing effect and hypotensive effect of the compounds of the present invention were determined by the following experiment.
(§2) Male rats weighing 200-350 g were anesthetized with urethane (25% urethane, 6 ml/kg, s.c.). The carotid artery and jugular vein were cannulated with polyethylene tubes for measurement of blood pressure and for drug injection, respectively. Blood pressure was obtained with a disposable pressure transducer kit (Spectramed, Ltd) and recorded with a recticoder (model RJG-4128, Nihon kohden, Ltd). Blood flow was monitored as cutaneous blood flow of the dorsum pedis using an attachment-type laser-Doppler flowmeter (model ALF21, Advance, Ltd). Measurements were taken until the values recovered to the level observed before injection of drugs. Injection time was about 10 seconds. The hypotensive effect and blood flow increasing effect were calculated as the maximal hypotensive activity (mmHg) and the area under the curve (AUC) after injection of drugs, respectively.
(§3) The results were represented by the dose required to obtain an effective increase in blood flow (main effect), and by the hypotensive effect (side effect) at the same dose.
(§4) The compounds of the present invention were administered in the form of a liposome formulation (as prepared in Example 4 below). As a comparative compound, PGE1 1-decanoyloxyethyl ester (described in Example 10 of the specification of Japanese Patent Kokai No. 59-206349) was administered in the form of a lipid emulsion (prepared in Reference Example 8 in the present specification).

Series [2] can be described thus: Blood flow increasing effect in anesthetized rats (laser-Doppler cutaneous blood flow, AUC). Format: in vivo. Conditions: i.v., rat. On the procedure: as §1, §2, §3, §4
The effectiveness of increasing blood flow was determined by the following method. […] In the above-described experimental assessment system for the compounds of the present invention, the AUG for this PGE1 lipid emulsion (5 μg/kg, i.v.) was 771 on the blood flow increasing effect; thus this value was chosen as an effective value for increase in blood flow.

[3] abbreviates: Examples as liposome formulation, comparative compound as lipid emulsion.
[4] abbreviates: dose 3 μg/kg, Examples as liposome formulation, comparative compound as lipid emulsion.
[5] abbreviates: dose 10 μg/kg, Examples as liposome formulation, comparative compound as lipid emulsion.
Where [6] appears, read: dose 30 μg/kg, liposome formulation.
[7] abbreviates: dose 1 μg/kg, Examples as liposome formulation, comparative compound as lipid emulsion.

Each structure is given as a SMILES string.

Regarding `CCCCCCCCCCCCCCCCOCC(=O)OCCOC(=O)CCCCCC[C@H]1C(=O)C[C@@H](O)[C@@H]1/C=C/[C@@H](O)CCCCC` [Example 2, PGE1 2-(hexadecyloxyacetoxy)ethyl ester], the “Hypotensive effect, Maximum hypotension on dose (A)” value (from here on “Hypotensive effect … (A)”) in series [1] (setting [3]) came to 6.1 mmHG. In addition, the entries for the “Hypotensive effect, Maximum hypotension” value in series [1] (setting [4]), in series [1] (setting [5]) and in series [1] (setting [6]) were 3 mmHg, 7 mmHg and 20 mmHg, respectively. Besides, the “Blood flow increasing effect, Total AUC” value in series [2] (setting [4]) is 329; in series [2] (setting [5]) it was 807; in series [2] (setting [6]), 3248. The “Blood flow increasing effect, Dose (A) required to obtain AUC = 771” value (shortened to “Blood flow increasing effect, Dose”) in series [2] (setting [3]) came to 8.14 µg/kg.
Take `CCCCCCCCCC(=O)OC(C)OC(=O)CCCCCC[C@H]1C(=O)C[C@@H](O)[C@@H]1/C=C/[C@@H](O)CCCCC` (some centres unmarked) [Comparative compound, PGE1 1-decanoyloxyethyl ester, reference compound]: in series [1] (setting [3]), the “Hypotensive effect … (A)” value is listed as 30.2 mmHG. Besides, the “Hypotensive effect, Maximum hypotension” value is on record as 1 mmHg in series [1] (setting [7]), 9 mmHg in series [1] (setting [4]) and 18 mmHg in series [1] (setting [5]). Moreover, the results for the “Blood flow increasing effect, Total AUC” value in series [2] (setting [7]), in series [2] (setting [4]) and in series [2] (setting [5]) were 92, 222 and 498, respectively. Also, the “Blood flow increasing effect, Dose” value in series [2] (setting [3]) came to 16.70 µg/kg.
As for `CCCCCCCCCCCC(=O)OCCOC(=O)CCCCCC[C@H]1C(=O)C[C@@H](O)[C@@H]1/C=C/[C@@H](O)CCCCC` [Example 1, PGE1 (dodecanoyloxy)ethyl ester], in series [1] (setting [3]), the “Hypotensive effect … (A)” value was determined as 4.3 mmHG. The “Hypotensive effect, Maximum hypotension” value in series [1] (setting [7]) turned out to be 3 mmHg; in series [1] (setting [4]), 7 mmHg; in series [1] (setting [5]) it was 13 mmHg. Besides, the “Blood flow increasing effect, Total AUC” value in series [2] (setting [7]) amounted to 175; in series [2] (setting [4]) it was 1914; in series [2] (setting [5]) it was 3528. Further, the “Blood flow increasing effect, Dose” value in series [2] (setting [3]) is 1.47 µg/kg.
Regarding `CCCCCCCCCCCCOCC(=O)OCCOC(=O)CCCCCC[C@H]1C(=O)C[C@@H](O)[C@@H]1/C=C/[C@@H](O)CCCCC` [Example 3, PGE1 2-(dodecyloxyacetoxy)ethyl ester], in series [1] (setting [3]), the “Hypotensive effect … (A)” value came out at 2.8 mmHG. For the same compound, the “Hypotensive effect, Maximum hypotension” value came to 2 mmHg in series [1] (setting [7]), 9 mmHg in series [1] (setting [4]) and 9 mmHg in series [1] (setting [5]). For the same compound, the “Blood flow increasing effect, Total AUC” value in series [2] (setting [7]) is recorded as 227; in series [2] (setting [4]), 4028; in series [2] (setting [5]), 5391. Besides, the “Blood flow increasing effect, Dose” value in series [2] (setting [3]) came out at 1.14 µg/kg.

For the origin of these results see patent US5690957A, “Prostaglandin derivatives” (Ono Pharmaceutical Co., Ltd., priority 1995, dated 1997).
